According to ChEMBL document CHEMBL1151616, “Na+-K+-ATPase inhibitors from Lysimachia japonica” (J Nat Prod, 1984):

Assay: Inhibition of Na+K+ATpase from pig cortex
Parameters: species or system Sus scrofa

## C[C@@H]1O[C@@H](O[C@H]2C[C@@H](O)[C@]3(CO)[C@H]4[C@H](O)C[C@]5(C)[C@@H](C6=CC(=O)OC6)CC[C@]5(O)[C@@H]4CC[C@]3(O)C2)[C@H](O)[C@H](O)[C@H]1O [OUABAIN]
  IC50: 600 nM
